According to ChEMBL document CHEMBL3797053, “2-Alkoxy-3-(sulfonylarylaminomethylene)-chroman-4-ones as potent and selective inhibitors of ectonucleotidases” (Eur J Med Chem, 2016):
pIC50, pKi: −log10 of the molar value. Activity calls are given as the source filed them. The calls are words filed in the database; no cut-off is given here.

How the values were obtained:
5'-nucleotidase [1] = target: T1, 5'-nucleotidase (Rattus norvegicus, UniProt P21588); test: Inhibition of rat Ecto-5'-nucleotidase transfected in COS7 cells preincubated for 10 mins followed by AMP addition measured after 10 mins; format: cell-based, COS-7
T1 sequence (P21588 whole entry): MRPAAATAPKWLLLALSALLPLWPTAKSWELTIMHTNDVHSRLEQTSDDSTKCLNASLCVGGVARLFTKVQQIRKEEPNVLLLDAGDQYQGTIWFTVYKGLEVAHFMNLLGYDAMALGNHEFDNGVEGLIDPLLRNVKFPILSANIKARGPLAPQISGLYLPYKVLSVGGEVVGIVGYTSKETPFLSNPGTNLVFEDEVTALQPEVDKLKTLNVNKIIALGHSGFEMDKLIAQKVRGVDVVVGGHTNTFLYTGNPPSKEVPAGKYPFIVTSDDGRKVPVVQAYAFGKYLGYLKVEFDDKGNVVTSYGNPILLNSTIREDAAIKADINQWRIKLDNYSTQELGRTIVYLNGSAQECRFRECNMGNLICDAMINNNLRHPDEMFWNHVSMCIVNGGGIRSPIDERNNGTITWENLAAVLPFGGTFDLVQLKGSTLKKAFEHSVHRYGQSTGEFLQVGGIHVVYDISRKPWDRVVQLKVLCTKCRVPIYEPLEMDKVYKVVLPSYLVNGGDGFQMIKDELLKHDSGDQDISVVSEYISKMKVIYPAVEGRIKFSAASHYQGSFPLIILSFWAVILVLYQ

[2] = target: T2, 5'-nucleotidase (Rattus norvegicus) (UniProt P21588); test: Inhibition of rat Ecto-5'-nucleotidase transfected in COS7 cells at 1 mM preincubated for 10 mins followed by AMP addition measured after 10 mins; format: cell-based; details: COS-7
T2 sequence (whole entry): T1 sequence (P21588 whole entry)

[3] = target: Intestinal-type alkaline phosphatase (Bos taurus, UniProt P19111); test: Inhibition of calf intestinal alkaline phosphatase preincubated for 3 to 5 mins followed by CDP-star substrate addition measured after 15 mins by luminescence assay
Bos taurus = species: Bos taurus; test: Selectivity ratio of Ki for calf intestinal alkaline phosphatase to Ki for bovine tissue non-specific alkaline phosphatase
[4] = target: T3, Alkaline phosphatase, tissue-nonspecific isozyme (Bos taurus) (UniProt P09487); test: Competitive inhibition of bovine tissue non-specific alkaline phosphatase at 0.5 to 2 uM preincubated for 3 to 5 mins followed by CDP-star substrate addition measured after 15 mins by double-reciprocal plot analysis
T3 sequence (whole entry): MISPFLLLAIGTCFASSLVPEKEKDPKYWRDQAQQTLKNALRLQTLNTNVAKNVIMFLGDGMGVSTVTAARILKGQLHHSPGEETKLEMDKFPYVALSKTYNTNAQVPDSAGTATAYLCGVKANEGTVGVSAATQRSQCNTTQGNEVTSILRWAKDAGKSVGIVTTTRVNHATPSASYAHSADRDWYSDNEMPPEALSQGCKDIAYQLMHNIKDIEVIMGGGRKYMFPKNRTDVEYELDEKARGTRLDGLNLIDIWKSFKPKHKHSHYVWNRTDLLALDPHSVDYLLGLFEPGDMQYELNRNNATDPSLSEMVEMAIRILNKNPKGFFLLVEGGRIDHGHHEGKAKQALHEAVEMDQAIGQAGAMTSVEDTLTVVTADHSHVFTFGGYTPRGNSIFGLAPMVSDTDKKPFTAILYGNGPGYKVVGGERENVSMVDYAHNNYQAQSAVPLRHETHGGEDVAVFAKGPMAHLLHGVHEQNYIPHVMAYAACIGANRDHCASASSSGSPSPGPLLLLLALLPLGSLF

5'-nucleotidase [5] = target: T4, 5'-nucleotidase (Homo sapiens, UniProt P21589); test: Inhibition of human Ecto-5'-nucleotidase transfected in COS7 cells at 1 mM preincubated for 10 mins followed by AMP addition measured after 10 mins; format: cell-based; details: COS-7
[6] = target: T5, Alkaline phosphatase, tissue-nonspecific isozyme (Bos taurus, UniProt P09487); test: Inhibition of bovine tissue non-specific alkaline phosphatase preincubated for 3 to 5 mins followed by CDP-star substrate addition measured after 15 mins by luminescence assay
T5 sequence (P09487 whole entry): T3 sequence (whole entry)

5'-nucleotidase [7] = target: T4, 5'-nucleotidase; test: Inhibition of human Ecto-5'-nucleotidase transfected in COS7 cells preincubated for 10 mins followed by AMP addition measured after 10 mins; format: cell-based, COS-7
[8] = target: T3, Alkaline phosphatase, tissue-nonspecific isozyme (Bos taurus); test: Inhibition of bovine tissue non-specific alkaline phosphatase at 0.2 mM preincubated for 3 to 5 mins followed by CDP-star substrate addition measured after 15 mins by luminescence assay
5'-nucleotidase [9] = target: T4, 5'-nucleotidase; details: COS-7, 0.5 to 2 uM
[10] = target: Intestinal-type alkaline phosphatase (Bos taurus) (UniProt P19111); details: 0.5 to 2 uM
Intestinal-type alkaline phosphatase (Bos taurus), sequence (P19111 20-506 limits assumed): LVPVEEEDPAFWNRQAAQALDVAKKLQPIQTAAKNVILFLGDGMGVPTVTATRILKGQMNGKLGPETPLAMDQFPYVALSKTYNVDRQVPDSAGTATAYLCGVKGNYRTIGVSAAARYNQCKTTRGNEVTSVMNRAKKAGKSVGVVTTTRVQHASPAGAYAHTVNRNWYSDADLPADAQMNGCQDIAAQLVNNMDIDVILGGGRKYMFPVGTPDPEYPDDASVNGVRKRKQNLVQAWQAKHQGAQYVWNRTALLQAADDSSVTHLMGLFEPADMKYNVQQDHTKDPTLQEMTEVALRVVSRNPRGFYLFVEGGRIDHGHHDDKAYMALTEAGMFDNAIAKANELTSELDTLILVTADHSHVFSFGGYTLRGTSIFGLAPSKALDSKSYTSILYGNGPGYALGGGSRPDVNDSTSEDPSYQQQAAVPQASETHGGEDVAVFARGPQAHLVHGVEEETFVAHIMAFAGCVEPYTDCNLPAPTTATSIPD
Description: Competitive inhibition of calf intestinal alkaline phosphatase at 0.5 to 2 uM preincubated for 3 to 5 mins followed by CDP-star substrate addition measured after 15 mins by double-reciprocal plot analysis

T4 sequence (P21589 whole entry): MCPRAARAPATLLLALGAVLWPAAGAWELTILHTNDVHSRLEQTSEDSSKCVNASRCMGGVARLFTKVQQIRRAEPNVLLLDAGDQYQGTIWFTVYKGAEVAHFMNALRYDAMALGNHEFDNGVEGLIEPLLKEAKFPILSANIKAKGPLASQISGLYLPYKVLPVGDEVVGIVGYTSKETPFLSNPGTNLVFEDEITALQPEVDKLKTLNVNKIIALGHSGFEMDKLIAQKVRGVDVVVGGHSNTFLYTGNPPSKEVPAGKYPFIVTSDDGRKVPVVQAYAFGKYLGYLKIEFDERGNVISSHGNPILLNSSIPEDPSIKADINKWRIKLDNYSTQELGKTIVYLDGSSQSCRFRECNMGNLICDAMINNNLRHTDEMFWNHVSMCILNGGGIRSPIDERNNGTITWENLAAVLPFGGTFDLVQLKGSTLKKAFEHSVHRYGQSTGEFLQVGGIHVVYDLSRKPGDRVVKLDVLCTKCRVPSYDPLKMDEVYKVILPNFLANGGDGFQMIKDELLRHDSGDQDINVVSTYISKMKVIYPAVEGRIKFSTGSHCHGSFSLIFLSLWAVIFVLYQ
Intestinal-type alkaline phosphatase, sequence (P19111 whole entry): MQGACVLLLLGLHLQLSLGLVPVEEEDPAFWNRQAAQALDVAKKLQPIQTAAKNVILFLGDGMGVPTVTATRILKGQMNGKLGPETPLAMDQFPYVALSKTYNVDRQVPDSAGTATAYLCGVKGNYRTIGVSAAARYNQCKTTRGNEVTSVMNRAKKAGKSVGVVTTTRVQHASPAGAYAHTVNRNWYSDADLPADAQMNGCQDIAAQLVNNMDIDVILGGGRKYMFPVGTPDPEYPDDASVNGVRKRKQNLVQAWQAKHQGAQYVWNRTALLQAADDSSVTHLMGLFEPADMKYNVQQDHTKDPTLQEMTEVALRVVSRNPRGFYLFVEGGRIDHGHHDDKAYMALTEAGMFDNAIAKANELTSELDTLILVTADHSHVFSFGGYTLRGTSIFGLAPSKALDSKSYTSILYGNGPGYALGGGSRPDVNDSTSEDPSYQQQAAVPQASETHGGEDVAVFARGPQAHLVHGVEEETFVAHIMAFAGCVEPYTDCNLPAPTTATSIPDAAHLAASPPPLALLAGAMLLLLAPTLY

Compound | pIC50 (5'-nucleotidase [1]) | pKi (5'-nucleotidase [1]) | inhibition [2] | pIC50 [3] | pKi [3] | pIC50 [6] | pKi [6] | pIC50 (5'-nucleotidase [7]) | pKi (5'-nucleotidase [7]) | other results
CCOC1Oc2ccc(F)cc2C(=O)/C1=C\Nc1ccc(S(N)(=O)=O)cc1 (racemic) | 5.67 | 7.00 |  |  |  |  |  |  |  | 
CCOC1Oc2ccc(CC)cc2C(=O)/C1=C\Nc1ccc(S(N)(=O)=O)cc1 (racemic) | 5.43 | 6.75 |  |  |  |  |  |  |  | 
CCOC1Oc2ccc(F)cc2C(=O)/C1=C\Nc1cccc(S(N)(=O)=O)c1 (racemic) | 6.00 | 7.33 |  |  |  |  |  |  |  | 
CCOC1Oc2ccc(Br)cc2C(=O)/C1=C\Nc1cccc(S(N)(=O)=O)c1 (racemic) | 5.21 | 6.53 |  |  |  |  |  |  |  | 
O=c1c(C2Nc3ccccc3S(=O)(=O)N2)coc2ccccc12 (racemic) | 5.42 | 6.74 |  |  |  |  |  |  |  | 
O=c1c(C2Nc3ccccc3S(=O)(=O)N2)coc2ccc(F)cc12 (racemic) | 5.57 | 6.89 |  |  |  |  |  |  |  | 
CCOC1Oc2c(Br)cc(Br)cc2C(=O)/C1=C\Nc1ccccc1S(N)(=O)=O (racemic) | 4.40 | 5.72 |  |  |  |  |  |  |  | 
CCOC1Oc2ccc(CC)cc2C(=O)/C1=C\Nc1ccccc1S(N)(=O)=O (racemic) | 7.00 | 8.33 |  |  |  |  |  |  |  | 
CCOC1Oc2ccccc2C(=O)/C1=C\Nc1ccc(S(=O)(=O)Nc2ccccn2)cc1 (racemic) | 4.82 | 6.15 |  |  |  |  |  |  |  | 
COC1Oc2ccc(C)cc2C(=O)/C1=C\Nc1ccccc1S(N)(=O)=O (racemic) |  |  | 47.8% | 5.30 | 5.66 | 6.74 | 7.11 |  |  | Ratio Ki (Bos taurus): 28; inhibition [4]: Active; inhibition (5'-nucleotidase [5]): 39.1%
COC1Oc2ccccc2C(=O)/C1=C\Nc1cccc(S(N)(=O)=O)c1 (racemic) | 5.55 | 6.87 |  | 4.40 | 4.77 |  |  | 6.42 | 7.74 | inhibition [8]: 32.1%
CCOC1Oc2ccccc2C(=O)/C1=C\Nc1ccc(S(=O)(=O)Nc2ccc(OC)nn2)cc1 (racemic) | 5.96 | 7.29 |  |  |  |  |  |  |  | 
COC1Oc2ccc(F)cc2C(=O)/C1=C\Nc1cccc(S(N)(=O)=O)c1 (racemic) |  |  | 46% | 4.87 | 5.25 | 5.84 | 6.21 |  |  | inhibition (5'-nucleotidase [5]): 44.4%
COC1Oc2ccc(F)cc2C(=O)/C1=C\Nc1ccc(S(N)(=O)=O)cc1 (racemic) |  |  | 46.4% | 4.16 | 4.54 | 4.75 | 5.12 |  |  | inhibition (5'-nucleotidase [5]): 46.8%
COC1Oc2ccc(Cl)cc2C(=O)/C1=C\Nc1ccc(S(N)(=O)=O)cc1 (racemic) | 5.77 | 7.09 |  | 5.35 | 5.72 |  |  | 5.78 | 7.10 | inhibition [8]: 20.9%
COC1Oc2ccc(C)cc2C(=O)/C1=C\Nc1ccc(S(N)(=O)=O)cc1 (racemic) |  |  | 42.9% | 5.50 | 5.87 | 5.09 | 5.46 |  |  | inhibition (5'-nucleotidase [5]): 47%
CC(C)OC1Oc2ccccc2C(=O)/C1=C\Nc1ccc(S(N)(=O)=O)cc1 (racemic) | 6.27 | 7.59 |  | 6.28 | 6.66 | 4.33 | 4.70 | 5.93 | 7.28 | 
COC1Oc2ccc(C)cc2C(=O)/C1=C\Nc1cccc(S(N)(=O)=O)c1 (racemic) |  |  | 47.5% | 5.18 | 5.56 | 3.96 | 4.33 |  |  | inhibition (5'-nucleotidase [5]): 44.5%
COC1Oc2c(Cl)cc(Cl)cc2C(=O)/C1=C\Nc1ccc(S(N)(=O)=O)cc1 (racemic) | 5.00 | 6.33 |  | 5.49 | 5.86 | 4.79 | 5.21 | 5.53 | 6.86 | 

Compound | pIC50 (5'-nucleotidase [1]) | pKi (5'-nucleotidase [1]) | inhibition [2] | pIC50 [3] | pKi [3] | pIC50 [6] | pKi [6] | pIC50 (5'-nucleotidase [7]) | pKi (5'-nucleotidase [7]) | other results
COC1Oc2ccc(F)cc2C(=O)/C1=C\Nc1ccccc1S(N)(=O)=O (racemic) |  |  | 45.4% | 4.99 | 5.37 | 4.77 | 5.14 |  |  | inhibition (5'-nucleotidase [5]): 48.2%
CC(C)OC1Oc2ccccc2C(=O)/C1=C\Nc1cccc(S(N)(=O)=O)c1 (racemic) |  |  | 25.7% | 4.75 | 5.12 | 3.95 | 4.32 | 6.54 | 7.85 | inhibition (5'-nucleotidase [9]): Active
CCCCOC1Oc2ccccc2C(=O)/C1=C\Nc1cccc(S(N)(=O)=O)c1 (racemic) | 5.44 | 6.76 |  | 5.64 | 6.01 | 4.11 | 4.48 | 6.42 | 7.74 | 
COC1Oc2ccc(Cl)cc2C(=O)/C1=C\Nc1ccccc1S(N)(=O)=O (racemic) | 5.88 | 7.21 |  | 5.63 | 6.00 |  |  | 5.87 | 7.19 | inhibition [8]: 29.9%
COC1Oc2ccccc2C(=O)/C1=C\Nc1ccccc1S(N)(=O)=O (racemic) | 5.62 | 6.94 |  | 5.11 | 5.48 | 3.15 | 3.52 | 5.72 | 7.04 | 
COC1Oc2ccccc2C(=O)/C1=C\Nc1ccc(S(N)(=O)=O)cc1 (racemic) |  |  | 27.7% | 6.25 | 6.62 | 3.77 | 4.14 | 5.15 | 6.47 | inhibition [10]: Active
COC1Oc2ccc(Cl)cc2C(=O)/C1=C\Nc1cccc(S(N)(=O)=O)c1 (racemic) | 5.62 | 6.95 |  | 4.50 | 4.87 |  |  | 6.25 | 7.57 | inhibition [8]: 34.2%
COC1Oc2c(Cl)cc(Cl)cc2C(=O)/C1=C\Nc1ccccc1S(N)(=O)=O (racemic) | 5.74 | 7.06 |  | 5.01 | 5.38 | 5.27 | 5.64 | 6.06 | 7.38 | 
COC1Oc2c(Cl)cc(Cl)cc2C(=O)/C1=C\Nc1cccc(S(N)(=O)=O)c1 (racemic) | 5.32 | 6.64 |  | 5.08 | 5.44 | 5.45 | 5.83 | 6.01 | 7.34 | 
CCCCOC1Oc2ccccc2C(=O)/C1=C\Nc1ccc(S(N)(=O)=O)cc1 (racemic) |  |  | 6.66% | 4.32 | 4.69 | 5.34 | 5.71 | 5.88 | 7.20 | 
CCOC1Oc2ccc(Br)cc2C(=O)/C1=C\Nc1ccc(S(=O)(=O)Nc2ccccn2)cc1 (racemic) |  |  | 23.6% |  |  |  |  |  |  | 
CCOC1Oc2ccc(Br)cc2C(=O)/C1=C\Nc1ccc(S(N)(=O)=O)cc1 (racemic) |  |  | 29.7% |  |  |  |  |  |  | 
CCOC1Oc2ccc(CC)cc2C(=O)/C1=C\Nc1cccc(S(N)(=O)=O)c1 (racemic) |  |  | 40.5% |  |  |  |  |  |  | 
CCOC1Oc2ccccc2C(=O)/C1=C\Nc1ccc(S(=O)(=O)Nc2cc(OC)nc(OC)n2)cc1 (racemic) |  |  | 28.2% |  |  |  |  |  |  | 
CCOC1Oc2ccccc2C(=O)/C1=C\Nc1ccc(S(=O)(=O)Nc2nnc(C)s2)cc1 (racemic) |  |  | 48% |  |  |  |  |  |  | 
CCOC1Oc2ccccc2C(=O)/C1=C\Nc1ccc(S(N)(=O)=O)cc1 (racemic) |  |  | 39.5% |  |  |  |  |  |  | 
CCOC1Oc2ccccc2C(=O)/C1=C\Nc1cccc(S(N)(=O)=O)c1 (racemic) |  |  | 30.1% |  |  |  |  |  |  | 
O=c1c(C2Nc3ccccc3S(=O)(=O)N2)coc2ccc(Br)cc12 (racemic) |  |  | 20.3% |  |  |  |  |  |  | 
